“Also recorded” adds a separate entry of the source.
Tested on: glycosylated hemoglobin level (HbAlC)
Assay: Clinical study of long term administration of ranolazine: HbA1C in patients having coronary disease
Assay type: in vivo, human
Text: Baseline is in-hospital visit prior to hospitalization.

SMILES: COc1ccccc1OCC(O)CN1CCN(CC(=O)Nc2c(C)cccc2C)CC1 (racemic) [Ranolazine, (±)-N-(2,6-dimethylphenyl)-4-[2-hydroxy-3-(2-methoxyphenoxy)-propyl]-1-piperazineacetamide]
- Number of patients with HbA1c ≧7% (Diabetes at enrollment, n = 1098, Month 16): 63
- Number of patients with HbA1c ≧7% (No Diabetes at enrollment, n = 2170, Final Visit): 92
- Number of patients with HbA1c ≧7% (No Diabetes at enrollment, n = 2170, Month 4): 78
- Number of patients with HbA1c ≧7% (No Diabetes at enrollment, n = 2170, Month 8): 72
- Number of patients with HbA1c ≧7% (No Diabetes at enrollment, n = 2170, Month 16): 21
- Effect on HbAlc levels (all patients treated, FIGS. 1 and 2): HbAlc lowering effect on all patients treated; also recorded: significantly lowers serum HbAlC levels
- Effect on HbAlc levels (diabetic patients, FIG. 2): reduction in the amount of HbAlC levels
- Effect on HbAlc levels (non-diabetic patients, FIG. 2): reduction in the amount of HbAlC levels

Reference: US20080248112A1 (priority 2007, published 2008)
